Entries after “also recorded” stand apart in the source; their conditions may differ. Blank lines part the entries; values can stand above or below the compound they belong to.
Key:
C57 mice = assay: Intraperitoneal injection of phenylalanine and isoleucine, blood Th1 cells by FACS; assay type: in vivo, mouse; details: WT mice, intraperitoneal injection 50 mg/kg for 4 days
Method: Animals. Tg mice and co-housed WT mice (corresponding WT mice generated by mating Tg mice and C57 mice) were housed in the same cage after birth. WT mice (C57) were housed in separate cages to avoid cross-transfer of microbiota. All mice were kept in a 23° C. room with a 12-hour (h) light-dark cycle. Mice were randomly assigned to different groups before treatment. For time course analysis of Tg mice, male and female Tg mice were sacrificed at 2, 3, 5, 7 and 9 months of age. The mouse brain was collected and stained for immune cell analysis and cytokine analysis. Before the mice were sacrificed, feces were collected for gut microbiota analysis. For OM1 treatment, at the age of 6.5 months, based on 450 mg b.i.d. (twice a day) in the phase III trial, Tg mice were treated with 100 mg/kg OM1 by oral administration once a day for one month. Behavioral tests were performed to monitor cognitive activity after the last treatment. […] All mouse movements that occur in PhenoTyper (HomeCage) are recorded by a computerized tracking system, which calculates the time and number of entrances required to reach 80% of the performance standard (Noldus, Ethovision). […]
Flow cytometry sample preparation and analysis. […] All samples were counted and adjusted to a density of 2-3×10^6/100 μL, labeled with a Live/Dead kit for 30 min, and then centrifuged at 500×g for 3 min at 4° C. […]

naive CD4+ T cells = assay: In vitro differentiation and proliferation induced by phenylalanine and isoleucine; assay type: cell-based, mouse; details: amino acid added directly to naive CD4+ T cell culture; for Th1 cell proliferation: CellTrace
Method: In Vitro differentiation and proliferation induced by phenylalanine and isoleucine. Naive CD4^+ T cells were separated from the splenocytes of 8-month-old C57BL/6 female mice using the Naive CD4^+ T cell Isolation Kit (Stem Cell, #19765), and the cells were stained with CellTrace (Thermo Fisher, #C34557). A total of 1×10^5 cells/well in 0.2 mL of RPMI-1640 medium were plated in 96-well plates, and the culture medium was supplemented with cytokines or blocking antibodies. Th0: 10 ng/mL mIL-2; Th1:10 ng/mL mIL-2, 5000 ng/mL 11B11. Phenylalanine (final concentration, 2 mmol/L), isoleucine (final concentration, 2 mmol/L) and OM1 (final concentration, 100 μg/mL) were added into the indicated wells, respectively. After incubation at 37° C. in 5% CO2 for 5 days, cells were acquired on a BD Fortessa cytometer, and data were analyzed using FlowJo software.

SLC7A5 = molecular target: T1, SLC7A5 (Mus musculus, UniProt Q9Z127); assay: Uptake of 13C-labelled phenylalanine by naive CD4+ T cells; assay type: cell-based; details: 0.5 h incubation
T1 construct: endogenous in cells; host or cells: naive CD4+ T cells from splenocytes of C57BL/6 mice (Th0 / IL-12-induced Th1)
T1 sequence (Q9Z127 whole entry): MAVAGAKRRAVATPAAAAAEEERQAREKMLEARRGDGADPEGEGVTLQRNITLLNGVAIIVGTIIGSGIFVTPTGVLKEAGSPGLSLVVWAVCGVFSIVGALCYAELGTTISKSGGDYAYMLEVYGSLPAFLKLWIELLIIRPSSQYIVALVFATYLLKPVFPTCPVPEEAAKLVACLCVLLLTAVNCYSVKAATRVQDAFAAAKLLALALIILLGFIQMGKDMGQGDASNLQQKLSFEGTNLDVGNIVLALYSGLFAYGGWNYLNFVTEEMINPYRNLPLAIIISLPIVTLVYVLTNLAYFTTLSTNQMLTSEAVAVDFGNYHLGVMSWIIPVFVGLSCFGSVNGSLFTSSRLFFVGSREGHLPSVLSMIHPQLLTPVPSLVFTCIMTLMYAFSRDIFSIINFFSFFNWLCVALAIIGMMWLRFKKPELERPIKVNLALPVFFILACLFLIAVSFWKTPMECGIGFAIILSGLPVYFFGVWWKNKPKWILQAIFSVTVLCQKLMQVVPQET
T1 sequence (P10852 whole entry partner): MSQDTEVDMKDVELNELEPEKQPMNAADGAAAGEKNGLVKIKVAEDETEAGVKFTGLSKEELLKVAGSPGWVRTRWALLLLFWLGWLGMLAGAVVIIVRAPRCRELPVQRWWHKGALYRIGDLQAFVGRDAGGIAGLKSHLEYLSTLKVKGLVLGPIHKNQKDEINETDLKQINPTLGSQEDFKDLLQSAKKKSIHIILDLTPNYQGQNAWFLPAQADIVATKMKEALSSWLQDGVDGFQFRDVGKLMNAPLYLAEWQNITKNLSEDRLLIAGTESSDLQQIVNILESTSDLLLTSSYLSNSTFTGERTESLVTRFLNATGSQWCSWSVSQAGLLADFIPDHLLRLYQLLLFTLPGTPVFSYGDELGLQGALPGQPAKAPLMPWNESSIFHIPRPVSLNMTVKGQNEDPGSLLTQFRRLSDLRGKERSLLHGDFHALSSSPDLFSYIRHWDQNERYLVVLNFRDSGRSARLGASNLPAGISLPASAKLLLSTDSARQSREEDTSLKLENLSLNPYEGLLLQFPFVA
Method: Uptake of phenylalanine. Naive CD4^+ T cells were separated from the splenocytes of 8-month-old C57BL/6 female mice using the Naive CD4^+ T cell Isolation Kit (Stem Cell, Cat No. 19765) and were induced to Th1 differentiation by 20 ng/mL IL-12. After 3 days, a total of 5×10^5 cells/well Th1 cells and Th0 cells in 0.5 mL of RPMI-1640 medium were plated into 48-well plates. ^13C-labelled phenylalanine and 5 mM amino transporter inhibitor BCH were added into indicated wells. After 0.5 h, cells were collected and washed twice with ice-cold D-PBS. 50 μL deionized water was added and cells were lysed through freezing and thawing twice at −80° C. The cell lysate was centrifuged at 12000×g for 10 min and ^13C-labelled phenylalanine in the supernatant was analyzed by Mass spectrometry.

[1] = system: 5×FAD transgenic (Tg) mice; assay: Flow cytometry of Th1 cells and M1 microglia in brain homogenate; assay type: in vivo, mouse; details: 6-month-old 5×FAD mice, 50 mg/kg intraperitoneal every day for one month, versus vehicle
Method: Animals. […] Mice were randomly assigned to different groups before treatment. […] The mouse brain was collected and stained for immune cell analysis and cytokine analysis. […] For OM1 treatment, at the age of 6.5 months, based on 450 mg b.i.d. (twice a day) in the phase III trial, Tg mice were treated with 100 mg/kg OM1 by oral administration once a day for one month. […] The brains and feces of the mice were then used for different analyses.
Flow cytometry sample preparation and analysis. Mice were anesthetized, blood samples were collected into EDTA-containing tubes, and red blood cells were removed using 1×red blood lysis buffer. Before tissue collection, the brains were perfused with ice-cold PBS to avoid sampling the circulating blood immune cells, and the brains were removed, chopped into pieces and dissected according to the introduction of the Adult Brain Dissociation Kit (Miltenyi, Cat No. 130-107-677) using the gentleMACS dissociator (Miltenyi Biotec). The brain homogenate was filtered through a 70-μm cell strainer and centrifuged at 300×g for 5 min at 4° C. The cell pellet was resuspended in cold PBS buffer and centrifuged again at 300×g for 5 min at 4° C. All samples were counted and adjusted to a density of 2-3×10^6/100 μL, labeled with a Live/Dead kit for 30 min, and then centrifuged at 500×g for 3 min at 4° C. The cells were resuspended in 100 μL PBS buffer, blocked with anti-CD16/32 (Biolegend, Cat No. 101320) for 10 min, and incubated with the antibody according to the manufacturers' protocols at 4° C. for 30 min. […]

LAT1 = LAT1 (Homo sapiens, UniProt Q01650); details: supplier description; cited from earlier work
LAT1, sequence (Q01650 whole entry, species assumed): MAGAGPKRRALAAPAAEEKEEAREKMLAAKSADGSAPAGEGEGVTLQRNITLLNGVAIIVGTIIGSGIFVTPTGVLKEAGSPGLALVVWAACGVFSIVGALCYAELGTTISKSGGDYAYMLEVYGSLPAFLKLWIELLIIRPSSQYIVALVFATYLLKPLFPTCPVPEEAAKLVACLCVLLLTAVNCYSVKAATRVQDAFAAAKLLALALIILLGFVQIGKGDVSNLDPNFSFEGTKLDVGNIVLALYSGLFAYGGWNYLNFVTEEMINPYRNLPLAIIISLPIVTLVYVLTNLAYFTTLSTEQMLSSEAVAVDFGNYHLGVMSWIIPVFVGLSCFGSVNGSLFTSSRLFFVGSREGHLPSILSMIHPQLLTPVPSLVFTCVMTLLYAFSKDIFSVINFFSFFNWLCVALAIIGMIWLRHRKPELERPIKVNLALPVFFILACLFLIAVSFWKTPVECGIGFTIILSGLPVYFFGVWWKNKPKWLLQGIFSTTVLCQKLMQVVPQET
LAT1, sequence (P08195 102-630 partner, species assumed): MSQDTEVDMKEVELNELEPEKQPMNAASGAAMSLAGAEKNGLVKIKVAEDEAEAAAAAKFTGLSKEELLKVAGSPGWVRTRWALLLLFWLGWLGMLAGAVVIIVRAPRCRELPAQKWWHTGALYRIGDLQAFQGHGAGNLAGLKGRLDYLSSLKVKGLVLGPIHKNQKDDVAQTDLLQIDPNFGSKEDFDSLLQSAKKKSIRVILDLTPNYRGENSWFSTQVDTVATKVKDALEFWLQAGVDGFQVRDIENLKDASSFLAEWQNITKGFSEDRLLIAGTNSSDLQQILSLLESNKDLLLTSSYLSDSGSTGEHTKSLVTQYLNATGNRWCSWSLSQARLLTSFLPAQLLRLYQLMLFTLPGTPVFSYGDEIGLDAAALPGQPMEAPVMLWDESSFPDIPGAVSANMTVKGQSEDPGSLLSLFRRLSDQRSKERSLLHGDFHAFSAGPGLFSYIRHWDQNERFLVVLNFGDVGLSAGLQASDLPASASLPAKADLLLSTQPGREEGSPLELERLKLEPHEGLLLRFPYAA

SMILES: CC[C@H](C)[C@H](N)C(=O)O [isoleucine]
- Th1 cell count in the blood (C57 mice): increased significantly
- Th0 cell differentiation into Th1 cells (naive CD4+ T cells): increased
- Th1 cell proliferation (naive CD4+ T cells): increased

SMILES: N[C@@H](Cc1ccccc1)C(=O)O [phenylalanine]
- Th1 cell count in the blood (C57 mice): increased significantly
- Th0 cell differentiation into Th1 cells (naive CD4+ T cells): increased
- Th1 cell proliferation (naive CD4+ T cells): increased

- uptake of 13C-labelled phenylalanine by CD4+ T cells (SLC7A5): blocked
SMILES: Nc1cc(COc2c(Cl)cc(C[C@H](N)C(=O)O)cc2Cl)c2oc(-c3ccccc3)nc2c1 [JPH 203]
- proportion of pro-inflammatory Th1 cells in the mouse brain ([1]; 50 mg/kg): significantly reduces the proportion of Th1 cells in the mouse brain
- proportion of pro-inflammatory Th1 cells in the mouse brain ([1]; listed as JPH203, 50 mg/kg): effectively inhibits the proportion of Th1 cells in the brain; also recorded: significantly downregulated the proportion of pro-inflammatory Th1 cells in the mouse brain
- LAT1 selectivity (LAT1): selectively inhibits LAT1
